Experiment: xn = mol fraction of the nth substance listed
Details: 101.3 kPa, Liquid

Cc1ccc(C)cc1 [1,4-dimethylbenzene] + C[S+](C)[O-]
Details | mass density [kg/m3]
293.15 K, x1 = 0.0599 | 1077
293.15 K, x1 = 0.1284 | 1052.94
293.15 K, x1 = 0.1944 | 1031.59
293.15 K, x1 = 0.2783 | 1006.68
293.15 K, x1 = 0.3589 | 984.83
293.15 K, x1 = 0.4385 | 965.03
293.15 K, x1 = 0.5032 | 950.09
293.15 K, x1 = 0.5539 | 939.03
293.15 K, x1 = 0.6235 | 924.72
293.15 K, x1 = 0.7023 | 909.62
293.15 K, x1 = 0.7635 | 898.63
293.15 K, x1 = 0.8243 | 888.27
293.15 K, x1 = 0.8831 | 878.73
293.15 K, x1 = 0.9327 | 871.04
303.15 K, x1 = 0.0632 | 1067.37
303.15 K, x1 = 0.1639 | 1032.58
303.15 K, x1 = 0.2343 | 1010.65
303.15 K, x1 = 0.2934 | 993.59
303.15 K, x1 = 0.3513 | 977.92
303.15 K, x1 = 0.425 | 959.33
303.15 K, x1 = 0.4892 | 944.29
303.15 K, x1 = 0.5633 | 928.09
303.15 K, x1 = 0.6398 | 912.58
303.15 K, x1 = 0.7135 | 898.68
303.15 K, x1 = 0.7624 | 889.95
303.15 K, x1 = 0.8243 | 879.44
303.15 K, x1 = 0.8609 | 873.48
303.15 K, x1 = 0.9244 | 863.55
313.15 K, x1 = 0.0662 | 1057.67
313.15 K, x1 = 0.1358 | 1033.11
313.15 K, x1 = 0.1942 | 1014.07
313.15 K, x1 = 0.2578 | 994.8
313.15 K, x1 = 0.3249 | 975.96
313.15 K, x1 = 0.3895 | 959.1
313.15 K, x1 = 0.4509 | 944.13
313.15 K, x1 = 0.5345 | 925.24
313.15 K, x1 = 0.6106 | 909.4
313.15 K, x1 = 0.6719 | 897.46
313.15 K, x1 = 0.754 | 882.52
313.15 K, x1 = 0.8358 | 868.7
313.15 K, x1 = 0.9235 | 854.92
323.15 K, x1 = 0.0573 | 1052.39
323.15 K, x1 = 0.1537 | 1018.34
323.15 K, x1 = 0.2359 | 992.38
323.15 K, x1 = 0.3131 | 970.2
323.15 K, x1 = 0.383 | 951.75
323.15 K, x1 = 0.4509 | 935.12
323.15 K, x1 = 0.5234 | 918.67
323.15 K, x1 = 0.5902 | 904.55
323.15 K, x1 = 0.6618 | 890.43
323.15 K, x1 = 0.7385 | 876.35
323.15 K, x1 = 0.8123 | 863.72
323.15 K, x1 = 0.8832 | 852.33
323.15 K, x1 = 0.9321 | 844.86
333.15 K, x1 = 0.0529 | 1045.49
333.15 K, x1 = 0.1248 | 1019.37
333.15 K, x1 = 0.1944 | 996.31
333.15 K, x1 = 0.265 | 974.86
333.15 K, x1 = 0.3398 | 954.01
333.15 K, x1 = 0.4014 | 938.13
333.15 K, x1 = 0.4624 | 923.43
333.15 K, x1 = 0.5137 | 911.8
333.15 K, x1 = 0.5823 | 897.2
333.15 K, x1 = 0.6582 | 882.18
333.15 K, x1 = 0.731 | 868.78
333.15 K, x1 = 0.8043 | 856.2
333.15 K, x1 = 0.8638 | 846.57
333.15 K, x1 = 0.9247 | 837.2
343.15 K, x1 = 0.0638 | 1032.77
343.15 K, x1 = 0.1398 | 1005.47
343.15 K, x1 = 0.2012 | 985.32
343.15 K, x1 = 0.275 | 963.03
343.15 K, x1 = 0.351 | 942.07
343.15 K, x1 = 0.4132 | 926.22
343.15 K, x1 = 0.4891 | 908.31
343.15 K, x1 = 0.5409 | 896.9
343.15 K, x1 = 0.6148 | 881.67
343.15 K, x1 = 0.6728 | 870.48
343.15 K, x1 = 0.7322 | 859.68
343.15 K, x1 = 0.813 | 845.91
343.15 K, x1 = 0.8732 | 836.29
343.15 K, x1 = 0.9322 | 827.33
353.15 K, x1 = 0.0609 | 1025.3
353.15 K, x1 = 0.1428 | 995.69
353.15 K, x1 = 0.218 | 971.2
353.15 K, x1 = 0.2843 | 951.45
353.15 K, x1 = 0.3598 | 930.79
353.15 K, x1 = 0.4241 | 914.57
353.15 K, x1 = 0.481 | 901.17
353.15 K, x1 = 0.5393 | 888.27
353.15 K, x1 = 0.6042 | 874.83
353.15 K, x1 = 0.6629 | 863.42
353.15 K, x1 = 0.7321 | 850.8
353.15 K, x1 = 0.7832 | 842
353.15 K, x1 = 0.833 | 833.83
353.15 K, x1 = 0.9128 | 821.46
